Experimental data taken from US10130715B2 (priority 2013, dated 2018).
Like-named read-outs stand apart in the source and are kept apart here.

Key:
[1] = Pilot study: plasma β-alanine and net retention after oral ingestion (GC-MS); assay type: in vivo, human
Method: Each subject completed three trials, labeled “A”, “B”, and “C” using a Latin square design (i.e. subject 1 completed trials in ABC order, subject 2 completed trials in BCA order, and subject 3 completed trials in CAB order). […] Blood samples were drawn into lithium heparin tubes at baseline (time 0), 30 min, 1 hr, 2 hr, 3 hr, 4 hr post ingestion, spun in a clinical centrifuge for 15 minutes, and processed to obtain plasma.

individuals = conditions: human, in vivo
Description: A minimum clinically significant difference in VAS rating for pain or paraesthesia appears to range from 13 mm to 16 mm with a 95% confidence interval. (See e.g., Gallagher, et al., Am J Emerg Med. 2002; 20(4):287-90; Bouhassira, et al., Pain. 2004; 108(3):248-57; Poliakov, et al. Eur J Pain. 2011 November; 15(10):1015-22; and Eisenberg, et al. Eur J Pain. 1998; 2(4):321-327). VAS rating instruments have also been deemed specific and sensitive to detect the effects of an intervention on paraesthesia and neuropathic pain.

[2] = cited from earlier work

Net Loss (uMol), Mean (SD) ([1]; Mean (SD) of 3 subjects): 9174.5 (862.96) uMol
Net Loss ([1]; Subject 1, 0-4 hr collection): 10167.5 µmol
Net Loss ([1]; Subject 2, 0-4 hr collection): 8606.6 µmol
Net Loss ([1]; Subject 3, 0-4 hr collection): 8749.3 µmol
anchored 100 mm VAS scores for paraesthesia (individuals): 60 mm-90 mm
SMILES: NCCC(=O)O [β-alanine, 3-Aminopropanoic acid]
severity of paraesthesia ([2]; oral doses of 40 mg/kg or higher): moderate-to-severe
severity of paraesthesia ([2]; oral doses of 40 mg/kg): severe
severity of paraesthesia ([2]; oral, 10 mg/kg): relatively mild
